Positions of bridges follow the written chain, without caps; N, C: chain ends. Non-standard residues stand in square brackets, D forms with d. Residues, ends and D or L forms follow the SMILES beside them. Trp(6-Cl) = N[C@@H](Cc1c[nH]c2cc(Cl)ccc12)C(=O)O; R8 = C=CCCCCCC[C@@](C)(N)C(=O)O; Cba = N[C@@H](CC1CCC1)C(=O)O; S5 = C=CCCC[C@](C)(N)C(=O)O; Ahx = NCCCCCC(=O)O
Legend:
T22 p53 reporter cells = assay: p53 gene reporter assay (β-galactosidase) in T22 cells; assay type: cell-based, murine; settings: for P53 Activation (T22 Cells), 0% FCS (p53ACT50 / EC50) / P53 Activation (T22 Cells), 10% FCS (p53ACT50 / EC50): 18 h, 1% DMSO, normalised to 25 µM Nutlin, 4 parameter fit to 10 point titration
Method: T22 cells, which were stably transfected with a p53 responsive β-galactosidase reporter, were seeded into a 96-well plate at a cell density of 8000 cells per well. Cells were also maintained in Dulbecco’s Minimal Eagle Medium (DMEM) with 10% fetal calf serum (FCS) and 1% (v/v) penicillin/streptomycin. The cells were incubated for 24 hours and followed by cell media removal and replacement with 90 µl of fresh DMEM either containing 10% FCS or 0% FCS. 10 µl of each compound was then added directly to each well and incubated for 18 hours. Final working concentration of DMSO was 1% v/v. […] Measurements were carried out using an Envision multiplate reader (Perkin-Elmer). […] This was then used to normalize the experimental results.

Mdm2 (1-125) = target: T1, Mdm2 (1-125) (Homo sapiens, UniProt Q00987); assay: Mdm2 competitive fluorescence anisotropy assay (FAM-labeled 12/1 peptide displacement); assay type: binding; settings: for Kd: read-out: Kd (apparent dissociation constant, competitive fluorescence anisotropy); as to Kd (apparent dissociation constant, competitive fluorescence anisotropy): 250 nM MDM2
T1 construct: Purified MDM2 (1-125) protein was titrated against 50 nM carboxyfluorescein (FAM)-labeled; GST (N, cleaved yes); made in house; host or cells: E. coli BL21 DE3 (pGEX-6P-1)
Method: analyzed with SDS page gel and concentrated using a Centricon (3.5 kDa MWCO) concentrator, Millipore. Mdm2 protein samples were then dialyzed into a buffer solution containing 20mM Bis-Tris, pH 6.5, 0.05M NaCl with 1mM DTT and loaded onto a monoS column pre-equilibrated in buffer A (20mM Bis-Tris, pH 6.5, 1mM DTT). The column was then washed in 6 column volumes of buffer A and bound protein was eluted with a linear gradient of 1M NaCL over 25 column volumes. Protein fractions were analyzed with SDS page gel and concentrated using a Centricon (3.5 kDa MWCO) concentrator, Millipore.
Protein concentration was determined using A280 using an extinction coefficients […]
Mdm2 Competitive Fluorescence Anisotropy Assay and Kd Determination […]
Dissociation constants for titration of MDM2 against […]
equation shown below:25,26
[P] is the protein concentration (MDM2), [L] is the labeled peptide concentration, r is the anisotropy measured, r0 is the anisotropy of the free peptide, rb is the anisotropy of the MDM2– FAM-labeled peptide complex, Kd is the dissociation constant, [L]t is the total FAM labeled
(1 picture or pasted object on this page, not shown here) […]
peptide concentration, and [P]t is the total MDM2 concentration. […]
respective competing ligands in subsequent competition assays.
Apparent Kd values were determined for a variety of molecules via competitive fluorescence anisotropy experiments. Titrations were carried out with the concentration of MDM2 held constant […]
The competing molecules were then titrated against the complex of the FAM-labeled peptide and protein. Apparent Kd values were determined by fitting the experimental data to the equations shown below:26,27 […]
[L]st and [L]t denote labeled ligand and total unlabeled ligand input concentrations, respectively.
Kd2 is the dissociation constant of the interaction between the unlabeled ligand and the protein. In […]
all competitive types of experiments, it is assumed that [P]t > [L]st, otherwise considerable amounts of free labeled ligand would always be present and would interfere with measurements. Kd1 is the […]
experimentally determined as described in the previous paragraph. The FAM-labeled peptide was dissolved in dimethyl sulfoxide (DMSO) at 1 mM and diluted into experimental buffer. Readings were carried out with an Envision Multilabel Reader (PerkinElmer). Experiments were carried out […]
Tween 20 buffer. All titrations were carried out in triplicate. Curve-fitting was carried out using […]
Negative control titrations of the ligands under investigation were also carried out with the fluorescently labeled peptide (in the absence of MDM2) to ensure no interactions were occurring between the ligands and FAM-labeled peptide. […]
which would otherwise indicate an unintended interaction between the ligand and the FAM-labeled peptide to be displaced from the MDM2 binding site. […]

T22 cells = assay: Lactate dehydrogenase (LDH) release assay in T22 cells; assay type: cell-based, murine; settings: for LDH Release (T22 Cells), 0% FCS (LDH50) / LDH Release (T22 Cells), 10% FCS (LDH50): 2 h treatment, normalised to 0.1% Triton X-100 lysis, 4 parameter fit to 10 point titration
Method: (§1) T22 cells or HEK 293 cells were seeded into a 96-well plate at a cell density of 5000 cells per well. Cells were maintained in Dulbecco’s Minimal Eagle Medium (DMEM) with 10% fetal bovine serum (FBS) and 1% (v/v) penicillin/streptomycin. The cells were incubated for 24 hours followed by cell media removal and addition of 90 µl of DMEM either with or without 10% FCS. Cells were then treated with compounds/peptide for 2 hours in DMEM with or without 10% FBS. Final working concentration of DMSO was 1% v/v. Corresponding negative control wells with 1% DMSO only were also prepared. Cytosolic lactate dehydrogenase release was detected using the cytoTox 96® non-radioactive cytotoxicity Assay kit (Promega) as per manufacturer’s instructions. Measurements were carried out using an Envision multiplate reader (Perkin-Elmer). Maximum LDH release was defined as the amount of LDH released when cells were lysed in the presence of 0.1% TRITON X-100 and was used to normalize the results.

HEK293 cells = assay: Lactate dehydrogenase (LDH) release assay in HEK293 cells; assay type: cell-based; settings: 0% FCS, 2 hour treatment, 12.5, 25 and 50 µM, normalised to 0.1% Triton X100 (Figure S1)
Method: as §1, with “results. […]” for “results.”
to induce LDH release in HEK293 cells after a 2 hour treatment period in A) the absence of FCS and B) the presence of 10% FCS. Compounds were tested at concentrations of 12.5 µM, 25 µM and 50 µM. Results were normalized to maximal LDH release as measured by treatment with 0.1% Triton X100.
(1 picture or pasted object on this page, not shown here)

T1 sequence (Q00987 1-125): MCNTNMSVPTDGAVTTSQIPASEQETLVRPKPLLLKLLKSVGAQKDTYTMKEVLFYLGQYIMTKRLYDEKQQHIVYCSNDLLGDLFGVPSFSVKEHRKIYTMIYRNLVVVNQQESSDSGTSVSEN

CC(=O)N[C@@H](CCCCN)C(=O)N[C@@H](CCCCN)C(=O)NCCCCCC(=O)N[C@H](C(=O)N[C@@H](CO)C(=O)N[C@@H](CC(C)C)C(=O)N[C@]1(C)CCCCCCC=CCCC[C@@](C)(C(=O)N[C@@H](CCC(=O)O)C(=O)N[C@@H](CC(N)=O)C(=O)N[C@@H](Cc2ccccc2)C(N)=O)NC(=O)[C@H](Cc2c[nH]c3ccccc23)NC(=O)[C@H](CC(C)C)NC(=O)[C@H](C)NC(=O)[C@H](Cc2ccccc2)NC(=O)[C@H](Cc2ccc(O)cc2)NC(=O)[C@H](CCC(=O)O)NC1=O)[C@@H](C)O [VIP-82^SCRAM] (Ac-KK[Ahx]TSL[R8]EYFALW[S5]ENF-NH2; staple 7-14)
P53 Activation (T22 Cells), 0% FCS (p53ACT50 / EC50) (T22 p53 reporter cells): No Activity
P53 Activation (T22 Cells), 10% FCS (p53ACT50 / EC50) (T22 p53 reporter cells): No Activity
p53 activity, peptide formulated with SaintPhD (in words) (T22 p53 reporter cells; formulated with SaintPhD, conditions identical to VIP-82:SaintPhD (Figure S2)): did not induce any p53 activity or LDH release
binding against Mdm2 in the FA competition assay (in words) (Mdm2 (1-125)): no binding
LDH Release (T22 Cells), 0% FCS (LDH50) (T22 cells): No Release
LDH Release (T22 Cells), 10% FCS (LDH50) (T22 cells): No Release
LDH release, peptide formulated with SaintPhD (in words) (T22 cells; formulated with SaintPhD (Figure S2)): did not induce any p53 activity or LDH release

CC(=O)N[C@H](CCCCN)C(=O)N[C@H](CCCCN)C(=O)NCCCCCC(=O)N[C@H](C(=O)N[C@@H](CO)C(=O)N[C@@H](Cc1ccccc1)C(=O)N[C@]1(C)CCCCCCC=CCCC[C@@](C)(C(=O)N[C@@H](CCC(=O)O)C(=O)N[C@@H](CC(N)=O)C(=O)N[C@@H](Cc2ccccc2)C(N)=O)NC(=O)[C@H](CC(C)C)NC(=O)[C@H](CC(C)C)NC(=O)[C@H](C)NC(=O)[C@H](Cc2c[nH]c3ccccc23)NC(=O)[C@H](Cc2ccc(O)cc2)NC(=O)[C@H](CCC(=O)O)NC1=O)[C@@H](C)O [VIP-133] (Ac-[dK][dK][Ahx]TSF[R8]EYWALL[S5]ENF-NH2; staple 7-14)
Kd (Mdm2 (1-125)): 10 ± 1 nM

CC(=O)N[C@H](CCCCN)C(=O)N[C@H](CCCCN)C(=O)N[C@H](CCCCN)C(=O)NCCCCCC(=O)N[C@H](C(=O)N[C@@H](CO)C(=O)N[C@@H](Cc1ccccc1)C(=O)N[C@]1(C)CCCCCCC=CCCC[C@@](C)(C(=O)N[C@@H](CCC(=O)O)C(=O)N[C@@H](CC(N)=O)C(=O)N[C@@H](Cc2ccccc2)C(N)=O)NC(=O)[C@H](CC(C)C)NC(=O)[C@H](CC(C)C)NC(=O)[C@H](C)NC(=O)[C@H](Cc2c[nH]c3ccccc23)NC(=O)[C@H](Cc2ccc(O)cc2)NC(=O)[C@H](CCC(=O)O)NC1=O)[C@@H](C)O [VIP-134] (Ac-[dK][dK][dK][Ahx]TSF[R8]EYWALL[S5]ENF-NH2; staple 8-15)
Kd (Mdm2 (1-125)): 6.2 ± 0.9 nM

CC(=O)N[C@H](C(=O)N[C@@H](CO)C(=O)N[C@@H](Cc1ccccc1)C(=O)N[C@]1(C)CCCCCCC=CCCC[C@@](C)(C(=O)N[C@@H](CCC(=O)O)C(N)=O)NC(=O)[C@H](CC(C)C)NC(=O)[C@H](CC(C)C)NC(=O)[C@H](C)NC(=O)[C@H](Cc2c[nH]c3cc(Cl)ccc23)NC(=O)[C@H](Cc2ccc(O)cc2)NC(=O)[C@H](CCC(=O)O)NC1=O)[C@@H](C)O [VIP-137]
Kd (Mdm2 (1-125)): < 1 nM

CC(=O)N[C@H](C(=O)N[C@@H](CO)C(=O)N[C@@H](Cc1ccccc1)C(=O)N[C@]1(C)CCCCCCC=CCCC[C@@](C)(C(=O)N[C@@H](CCC(=O)O)C(N)=O)NC(=O)[C@H](CC2CCC2)NC(=O)[C@H](CC(C)C)NC(=O)[C@H](C)NC(=O)[C@H](Cc2c[nH]c3cc(Cl)ccc23)NC(=O)[C@H](Cc2ccc(O)cc2)NC(=O)[C@H](CCC(=O)O)NC1=O)[C@@H](C)O [VIP-138] (Ac-TSF[R8]EY[Trp(6-Cl)]AL[Cba][S5]E-NH2; staple 4-11)
Kd (Mdm2 (1-125)): < 1 nM

CC(C)C[C@@H]1NC(=O)[C@H](C)NC(=O)[C@H](Cc2c[nH]c3ccccc23)NC(=O)[C@H](Cc2ccc(O)cc2)NC(=O)[C@H](CCC(=O)O)NC(=O)[C@](C)(NC(=O)[C@H](Cc2ccccc2)NC(=O)[C@H](CO)NC(=O)[C@@H](NC(=O)CNC(=O)[C@H](CO)NC(=O)CNC(=O)[C@H](CO)NC(=O)CCCC[C@@H]2SC[C@@H]3NC(=O)N[C@@H]32)[C@@H](C)O)CCCCCCC=CCCC[C@@](C)(C(N)=O)NC(=O)[C@H](CC(C)C)NC1=O [VIP-150]
Kd (Mdm2 (1-125)): 54.2 ± 5.9 nM

CC(=O)N[C@@H](CCCCN)C(=O)N[C@@H](CCCCN)C(=O)N[C@@H](CO)C(=O)NCC(=O)N[C@@H](CO)C(=O)NCC(=O)N[C@H](C(=O)N[C@@H](CO)C(=O)N[C@@H](Cc1ccccc1)C(=O)N[C@]1(C)CCCCCCC=CCCC[C@@](C)(C(N)=O)NC(=O)[C@H](CC(C)C)NC(=O)[C@H](CC(C)C)NC(=O)[C@H](C)NC(=O)[C@H](Cc2c[nH]c3ccccc23)NC(=O)[C@H](Cc2ccc(O)cc2)NC(=O)[C@H](CCC(=O)O)NC1=O)[C@@H](C)O [VIP-151] (Ac-KKSGSGTSF[R8]EYWALL[S5]-NH2; staple 10-17)
Kd (Mdm2 (1-125)): 33.6 ± 5.6 nM

CC(=O)N[C@H](C(=O)N[C@@H](CO)C(=O)N[C@@H](CC(C)C)C(=O)N[C@]1(C)CCCCCCC=CCCC[C@@](C)(C(N)=O)NC(=O)[C@H](Cc2c[nH]c3ccccc23)NC(=O)[C@H](CC(C)C)NC(=O)[C@H](C)NC(=O)[C@H](Cc2ccccc2)NC(=O)[C@H](Cc2ccc(O)cc2)NC(=O)[C@H](CCC(=O)O)NC1=O)[C@@H](C)O [sMTIDE-02^SCRAM] (Ac-TSL[R8]EYFALW[S5]-NH2; staple 4-11)
P53 Activation (T22 Cells), 0% FCS (p53ACT50 / EC50) (T22 p53 reporter cells): No Activity
P53 Activation (T22 Cells), 10% FCS (p53ACT50 / EC50) (T22 p53 reporter cells): No Activity
binding against Mdm2 in the FA competition assay (in words) (Mdm2 (1-125)): no binding
LDH release in HEK293 cells, absence of serum (in words) (HEK293 cells): induced significant amounts of LDH release
LDH Release (T22 Cells), 0% FCS (LDH50) (T22 cells): 25.1 ± 2.8 µM
LDH Release (T22 Cells), 10% FCS (LDH50) (T22 cells): 105 ± 8.0 µM

— paper PMC5431883, “Enhancing Specific Disruption of Intracellular Protein Complexes by Hydrocarbon Stapled Peptides Using Lipid Based Delivery” (Scientific Reports, 2017)
